These results are taken from patent publication US10953100B2, “Compounds and therapeutic uses thereof” (priority 2015, dated 2021).

This assay concerns the target Anti-alpha galactosyl IgG antibody. As to the kind of experiment: ELISA assay: streptavidin-captured biotin compound, binding of anti-alpha galactosyl IgG antibody. More on the design: species or system human. The conditions noted are these: geometric mean with standard error in brackets; streptavidin plate, anti-alpha galactosyl IgG 0.5 μg/mL; read-out: Concentration at half maximal binding. The protocol:
Compounds containing F (representing a carbohydrate molecule capable of binding to a human anti-alpha-galactosyl antibody) and L (as biotin) were assayed for binding at both ends of the compound using an enzyme-linked immunosorbent assay (ELISA). Streptavidin-coated plates captured biotin to the surface of the plate and the binding of anti-alpha galactosyl antibodies to the alpha-galactosyl moiety was reported by a secondary antibody labelled with HRP (Horse Radish Peroxidase).
Compounds were titrated 1.5 fold from a top dose of 50 nM in phosphate buffered saline (PBS) (Sigma D8537)+0.025% DMSO (Dimethyl Sulphoxide, Sigma D8418). Streptavidin immobilizer 96-well plates (nunc 436014) were coated with 100 μL of compound at room temperature for 2 hours shaking at 500 rpm. Plates were washed with 2×200 μL PBS-T (PBS with 0.05% Tween 20 (Sigma P9416)) and 1×200 μL PBS-T with a 5 minute incubation shaking at room temperature, prior to being blocked for 1 hour at room temperature with 1% Bovine Serum Albumin (BSA, Sigma A2153) in PBS-T. After removing the blocking buffer, 50 μL of Anti-alpha galactosyl IgG antibody (Anti-alpha-galactosyl antibody was purified from human IVIG (Gammagard) by affinity purification using an alpha-galactosyl-HSA (Human Serum Albumin) sepharose column by Rockland Immunochemicals Inc.) at 0.5 μg/mL in PBS-T+1% BSA and incubated shaking at room temperature for 1 hour.
Plates were washed 2×200 μL PBS-T and 3×200 μL PBS-T with a 5 minute incubation, shaking at room temperature before the addition of 50 μL 1:5000 Goat Anti-Human IgG-HRP (horseradish peroxidase) conjugate (Abcam ab97175). The plates were incubated shaking at room temperature for 1 hour before a final wash of 2×200 μL PBS-T and 3×200 μl PBS-T with a 5 minute incubation shaking at room temperature. 100 μL TMB buffer (3,3′,5,5′-tetramethylbenzidine, a chromogenic substrate for horseradish peroxidase) (Pierce 34021) was added to the plate and allowed to develop for 5-10 minutes before the samples were quenched with 50 μL 2M sulfuric acid (Sigma 258105). The absorbance was read at 450 nm on an Envision plate reader (Perkin Elmer). Results from wells (duplicate) were averaged and the 50% binding affinity calculated.
The concentration at which half-maximal binding is achieved is reported as a geometric mean with standard error in brackets. The number of independent experiments is also reported. In order to achieve a signal both ends of the molecule are required to bind (biotin to streptavidin and alpha-galactosyl to anti-alpha galactosyl antibodies) simultaneously.
In general terms: ELISA stands for enzyme-linked immunosorbent assay.
Consider `CC(=O)N[C@H]1[C@H](OCCCNC(=O)CCOCCOCCOCCOCCOCCOCCOCCOCCOCCOCCOCCOCCNC(=O)COc2cccc(C(=O)NCCNC(=O)CCOCCOCCOCCOCCOCCOCCOCCOCCOCCOCCOCCOCCNC(=O)CCCC[C@@H]3SC[C@@H]4NC(=O)N[C@@H]43)c2)O[C@H](CO)[C@@H](O[C@@H]2O[C@H](CO)[C@H](O)[C@H](O[C@H]3O[C@H](CO)[C@H](O)[C@H](O)[C@H]3O)[C@H]2O)[C@@H]1O` [Example 50], for which the EC50 worked out at 0.0261 µM. In the case of `CC(=O)NC1C(OCCCNC(=O)CCOCCOCCOCCOCCNC(=O)COc2cc(OCC(=O)NCCOCCOCCOCCOCCC(=O)NCCCOC3OC(CO)C(OC4OC(CO)C(O)C(OC5OC(CO)C(O)C(O)C5O)C4O)C(O)C3NC(C)=O)cc(-c3cc(C(=O)NCCNC(=O)CCCCC4SCC5NC(=O)NC54)c(OCC(=O)NCCOCCOCCOCCOCCC(=O)NCCCOC4OC(CO)C(OC5OC(CO)C(O)C(OC6OC(CO)C(O)C(O)C6O)C5O)C(O)C4NC(C)=O)cc3OCC(=O)NCCOCCOCCOCCOCCC(=O)NCCCOC3OC(CO)C(OC4OC(CO)C(O)C(OC5OC(CO)C(O)C(O)C5O)C4O)C(O)C3NC(C)=O)c2)OC(CO)C(OC2OC(CO)C(O)C(OC3OC(CO)C(O)C(O)C3O)C2O)C1O` (stereo not shown) [Example 51], the EC50 came to 0.0197 µM.

With `CC(=O)N[C@H]1[C@H](OCCCNC(=O)CCOCCOCCOCCOCCNC(=O)COc2ccc(-c3cccc(C(=O)NCCNC(=O)CCOCCOCCOCCOCCOCCOCCOCCOCCOCCOCCOCCOCCNC(=O)CCCC[C@@H]4SC[C@@H]5NC(=O)N[C@@H]54)c3)cc2)O[C@H](CO)[C@@H](O[C@@H]2O[C@H](CO)[C@H](O)[C@H](O[C@H]3O[C@H](CO)[C@H](O)[C@H](O)[C@H]3O)[C@H]2O)[C@@H]1O` [Example 52], the EC50 is 0.0349 µM.

On to `CC(=O)NC1C(OCCCNC(=O)CCOCCOCCOCCOCCNC(=O)COc2ccc(-c3cc(OCC(=O)NCCOCCOCCOCCOCCC(=O)NCCCOC4OC(CO)C(OC5OC(CO)C(O)C(OC6OC(CO)C(O)C(O)C6O)C5O)C(O)C4NC(C)=O)cc(C(=O)NCCNC(=O)CCOCCOCCOCCOCCOCCOCCOCCOCCOCCOCCOCCOCCNC(=O)CCCCC4SCC5NC(=O)NC54)c3)cc2)OC(CO)C(OC2OC(CO)C(O)C(OC3OC(CO)C(O)C(O)C3O)C2O)C1O` (stereo not shown) [Example 53], for which the EC50 came to 0.0349 µM. In the case of `CC(=O)NC1C(OCCCNC(=O)CCOCCOCCOCCOCCNC(=O)COc2cc(OCC(=O)NCCOCCOCCOCCOCCC(=O)NCCCOC3OC(CO)C(OC4OC(CO)C(O)C(OC5OC(CO)C(O)C(O)C5O)C4O)C(O)C3NC(C)=O)cc(-c3cc(OCC(=O)NCCOCCOCCOCCOCCC(=O)NCCCOC4OC(CO)C(OC5OC(CO)C(O)C(OC6OC(CO)C(O)C(O)C6O)C5O)C(O)C4NC(C)=O)cc(C(=O)NCCNC(=O)CCOCCOCCOCCOCCOCCOCCOCCOCCOCCOCCOCCOCCNC(=O)CCCCC4SCC5NC(=O)NC54)c3)c2)OC(CO)C(OC2OC(CO)C(O)C(OC3OC(CO)C(O)C(O)C3O)C2O)C1O` (stereo not shown) [Example 54] it was 0.0228 µM; in that of `CC(=O)N[C@H]1[C@H](OCCCNC(=O)COc2cc(-c3cccc(C(=O)NCCNC(=O)CCCC[C@@H]4SC[C@@H]5NC(=O)N[C@@H]54)c3)cc(OCC(=O)NCCCO[C@@H]3O[C@H](CO)[C@@H](O[C@@H]4O[C@H](CO)[C@H](O)[C@H](O[C@H]5O[C@H](CO)[C@H](O)[C@H](O)[C@H]5O)[C@H]4O)[C@H](O)[C@H]3NC(C)=O)c2OCC(=O)NCCCO[C@@H]2O[C@H](CO)[C@@H](O[C@@H]3O[C@H](CO)[C@H](O)[C@H](O[C@H]4O[C@H](CO)[C@H](O)[C@H](O)[C@H]4O)[C@H]3O)[C@H](O)[C@H]2NC(C)=O)O[C@H](CO)[C@@H](O[C@@H]2O[C@H](CO)[C@H](O)[C@H](O[C@H]3O[C@H](CO)[C@H](O)[C@H](O)[C@H]3O)[C@H]2O)[C@@H]1O` [Example 55], 0.0274 µM. Take `CC(=O)NC1C(OCCCNC(=O)CCOCCOCCOCCOCCOCCOCCOCCOCCOCCOCCOCCOCCNC(=O)COc2cc(OCC(=O)NCCOCCOCCOCCOCCOCCOCCOCCOCCOCCOCCOCCOCCC(=O)NCCCOC3OC(CO)C(OC4OC(CO)C(O)C(OC5OC(CO)C(O)C(O)C5O)C4O)C(O)C3NC(C)=O)cc(-c3cc(OCC(=O)NCCOCCOCCOCCOCCOCCOCCOCCOCCOCCOCCOCCOCCC(=O)NCCCOC4OC(CO)C(OC5OC(CO)C(O)C(OC6OC(CO)C(O)C(O)C6O)C5O)C(O)C4NC(C)=O)cc(C(=O)NCCNC(=O)CCCCC4SCC5NC(=O)NC54)c3)c2)OC(CO)C(OC2OC(CO)C(O)C(OC3OC(CO)C(O)C(O)C3O)C2O)C1O` (stereo not shown) [Example 56]: the EC50 was found to be 0.0163 µM. As for `CC(=O)NC1C(OCCCNC(=O)CCOCCOCCOCCOCCOCCOCCOCCOCCOCCOCCOCCOCCNC(=O)COc2cc(OCC(=O)NCCOCCOCCOCCOCCOCCOCCOCCOCCOCCOCCOCCOCCC(=O)NCCCOC3OC(CO)C(OC4OC(CO)C(O)C(OC5OC(CO)C(O)C(O)C5O)C4O)C(O)C3NC(C)=O)cc(-c3cc(OCC(=O)NCCOCCOCCOCCOCCOCCOCCOCCOCCOCCOCCOCCOCCC(=O)NCCCOC4OC(CO)C(OC5OC(CO)C(O)C(OC6OC(CO)C(O)C(O)C6O)C5O)C(O)C4NC(C)=O)cc(C(=O)NCCNC(=O)CCOCCOCCOCCOCCOCCOCCOCCOCCOCCOCCOCCOCCNC(=O)CCCCC4SCC5NC(=O)NC54)c3)c2)OC(CO)C(OC2OC(CO)C(O)C(OC3OC(CO)C(O)C(O)C3O)C2O)C1O` (stereo not shown) [Example 57], the figure is 0.0154 µM; as for `CC(=O)NC1C(OCCCNC(=O)CCOCCOCCOCCOCCNC(=O)COc2cc(OCC(=O)NCCOCCOCCOCCOCCC(=O)NCCCOC3OC(CO)C(OC4OC(CO)C(O)C(OC5OC(CO)C(O)C(O)C5O)C4O)C(O)C3NC(C)=O)cc(-c3cc(OCC(=O)NCCOCCOCCOCCOCCC(=O)NCCCOC4OC(CO)C(OC5OC(CO)C(O)C(OC6OC(CO)C(O)C(O)C6O)C5O)C(O)C4NC(C)=O)cc(C(=O)NCCOCCOCCOCCOCCC(=O)NCCNC(=O)CCCCC4SCC5NC(=O)NC54)c3)c2)OC(CO)C(OC2OC(CO)C(O)C(OC3OC(CO)C(O)C(O)C3O)C2O)C1O` (stereo not shown) [Example 58], 0.0376 µM. As to `CC(=O)NC1C(OCCCNC(=O)CCCNC(=O)CCOCCOCCOCCOCCNC(=O)COc2cc(OCC(=O)NCCOCCOCCOCCOCCC(=O)NCCCC(=O)NCCCOC3OC(CO)C(OC4OC(CO)C(O)C(OC5OC(CO)C(O)C(O)C5O)C4O)C(O)C3NC(C)=O)cc(-c3cc(OCC(=O)NCCOCCOCCOCCOCCC(=O)NCCCC(=O)NCCCOC4OC(CO)C(OC5OC(CO)C(O)C(OC6OC(CO)C(O)C(O)C6O)C5O)C(O)C4NC(C)=O)cc(C(=O)NCCNC(=O)CCCCC4SCC5NC(=O)NC54)c3)c2)OC(CO)C(OC2OC(CO)C(O)C(OC3OC(CO)C(O)C(O)C3O)C2O)C1O` (stereo not shown) [Example 59], the EC50 is 0.0213 µM. `CC(=O)NC1C(O)[C@H](O[C@@H]2OC(CO)[C@H](O)C(O[C@H]3OC(CO)[C@H](O)C(O)C3O)C2O)C(CO)O[C@H]1OCCCNC(=O)CCCNC(=O)COc1cc(OCC(=O)NCCCC(=O)NCCCO[C@@H]2OC(CO)[C@@H](O[C@@H]3OC(CO)[C@H](O)C(O[C@H]4OC(CO)[C@H](O)C(O)C4O)C3O)C(O)C2NC(C)=O)cc(-c2cc(OCC(=O)NCCCC(=O)NCCCO[C@@H]3OC(CO)[C@@H](O[C@@H]4OC(CO)[C@H](O)C(O[C@H]5OC(CO)[C@H](O)C(O)C5O)C4O)C(O)C3NC(C)=O)cc(C(=O)NCCNC(=O)CCCC[C@@H]3SC[C@@H]4NC(=O)N[C@@H]43)c2)c1` (stereo partly shown) [Example 60]: the EC50 worked out at 0.0241 µM. As for `CC(=O)N[C@H]1[C@H](OCCCNC(=O)COc2cc(OCC(=O)NCCCO[C@@H]3O[C@H](CO)[C@@H](O[C@@H]4O[C@H](CO)[C@H](O)[C@H](O[C@H]5O[C@H](CO)[C@H](O)[C@H](O)[C@H]5O)[C@H]4O)[C@H](O)[C@H]3NC(C)=O)cc(-c3cccc(-c4cccc(C(=O)NCCNC(=O)CCCC[C@@H]5SC[C@@H]6NC(=O)N[C@@H]65)c4)c3)c2)O[C@H](CO)[C@@H](O[C@@H]2O[C@H](CO)[C@H](O)[C@H](O[C@H]3O[C@H](CO)[C@H](O)[C@H](O)[C@H]3O)[C@H]2O)[C@@H]1O` [Example 61], the figure is 0.0299 µM. As for `CC(=O)N[C@H]1[C@H](OCCCNC(=O)COc2cc(OCC(=O)NCCCO[C@@H]3O[C@H](CO)[C@@H](O[C@@H]4O[C@H](CO)[C@H](O)[C@H](O[C@H]5O[C@H](CO)[C@H](O)[C@H](O)[C@H]5O)[C@H]4O)[C@H](O)[C@H]3NC(C)=O)cc(-c3cc(C(=O)NCCNC(=O)CCCC[C@@H]4SC[C@@H]5NC(=O)N[C@@H]54)cc(-c4cc(OCC(=O)NCCCO[C@@H]5O[C@H](CO)[C@@H](O[C@@H]6O[C@H](CO)[C@H](O)[C@H](O[C@H]7O[C@H](CO)[C@H](O)[C@H](O)[C@H]7O)[C@H]6O)[C@H](O)[C@H]5NC(C)=O)cc(OCC(=O)NCCCO[C@@H]5O[C@H](CO)[C@@H](O[C@@H]6O[C@H](CO)[C@H](O)[C@H](O[C@H]7O[C@H](CO)[C@H](O)[C@H](O)[C@H]7O)[C@H]6O)[C@H](O)[C@H]5NC(C)=O)c4)c3)c2)O[C@H](CO)[C@@H](O[C@@H]2O[C@H](CO)[C@H](O)[C@H](O[C@H]3O[C@H](CO)[C@H](O)[C@H](O)[C@H]3O)[C@H]2O)[C@@H]1O` [Example 62], the figure is 0.0207 µM.
